Reference: patent publication US4264600A (priority 1979, dated 1981)
≈ marks a conversion by molar mass, not a printed value. Read-outs that look alike come from different tables or passages of the source.

Assays:
[1] = test system: Ann Arbor or Maryland B strains of influenza virus; test: in vivo survival of mice infected with influenza virus; design: species or system White Swiss female mice, McAllister strain; settings: for minimal effective dose: read-out: in vivo dose at which there was a statistically significant increase in survival
Procedure: In vivo activity was determined as follows: White Swiss female mice (11-13 g.) McAllister strain were infected with aqueous dilutions of Ann Arbor or Maryland B strains of influenza virus in an air borne injection apparatus. Graded dose levels of the drug were injected intraperitoneally (IP) or administered orally by gavage 24 and 4 hours preinfection and 24 and 48 hours postinfection. Date of death was determined. The drug was administered in water containing 2% of a surfactant. In Table 1, column 7, a dosage level for each drug is given at which there was a statistically significant increase in survival and column 6 gives the route of administration.

[2] = test system: Maryland B influenza virus; test: in vitro plaque inhibition, Maryland B influenza virus; assay type: cell-based; settings: for IC50: unidentified influenza virus, in Chlorocebus sabaeus, 72 h, read-out: I50, amount of drug which inhibits 50% of the plaques
[3] = rats, 100 mg/kg
[4] = dogs, 30-60 mg/kg
[5] = test system: Ann Arbor influenza virus; test: in vitro plaque inhibition, Ann Arbor influenza virus; assay type: cell-based; settings: for IC50: unidentified influenza virus, in Chlorocebus sabaeus, 72 h, read-out: I50, amount of drug which inhibits 50% of the plaques
[6] = compared with 6,7-dichloro congener
Polio III = assay type: cell-based, Polio III virus; settings: in vitro
Vaccinia = assay type: cell-based, Vaccinia virus; settings: in vitro
Herpes simplex = test: in vitro plaque suppression test, Herpes simplex; assay type: cell-based, Herpes simplex virus
Echo 10 = test: in vitro plaque suppression test, Echo 10; assay type: cell-based, Echo 10 virus; settings: Echo 10, in vitro
[7] = route IP, OR, 24 and 4 hours preinfection and 24 and 48 hours postinfection
[8] = increased to 60 mg/day for 7 days
[9] = nasogastric gavage, 30 mg/day for 14 days
[10] = route IP, 24 and 4 hours preinfection and 24 and 48 hours postinfection

O=C(O)CCc1nc2cc(Cl)c(Cl)cc2[nH]c1=O [B]
minimal effective dose ([1]; ip): 50 mg/kg

COC(=O)c1nc2cc(Cl)c(Cl)cc2[nH]c1=O [C]
IC50 [2]: < 10 µg/mL | minimal effective dose ([1]; ip): 60 mg/kg

CCOC(=O)c1nc2cc(Cl)c(Cl)cc2[nH]c1=O [D]
degree of hepatotoxicity (both drugs) [3]: equal, though minor | degree of nephrotoxicity (both drugs) [3]: equal, though minor | degree of hepatotoxicity (both drugs) [4]: equal, though minor | degree of nephrotoxicity (both drugs) [4]: equal, though minor | IC50 [2]: 38 µg/mL (≈ 132 µM) | minimal effective dose [1, 7]: 40 mg/kg | blood urea nitrogen (30 then 60 mg/day): elevated | creatinine levels (30 then 60 mg/day): elevated | kidney damage (30 then 60 mg/day): evidence of kidney damage | AP [8]: remain elevated | SGPT [8]: returned to normal | AP [9]: moderate increases | SGPT [9]: moderate increases | liver damage (from AP and SGPT) [9]: suggestive of liver damage

O=C(O)c1nc2cc(Cl)c(Cl)cc2[nH]c1=O [E]
IC50 [5]: < 100 µg/mL | IC50 [2]: < 71 µg/mL | minimal effective dose ([1]; ip): 50 mg/kg

CCOC(=O)c1nc2cc(I)c(I)cc2[nH]c1=O [F, Ethyl 6,7-Diiodo-3,4-dihydro-3-oxo-2-quinoxaline Carboxylate]
Ann Arbor influenza virus in vitro activity (in words) ([5]; Ann Arbor influenza virus, in vitro): Active | minimal effective dose [1]: 80 mg/kg

CCCCOC(=O)c1nc2cc(Cl)c(Cl)cc2[nH]c1=O [G]
IC50 [2]: 38 µg/mL (≈ 121 µM)

O=C(OCCCl)c1nc2cc(Cl)c(Cl)cc2[nH]c1=O [J]
IC50 [5]: 76 µg/mL (≈ 236 µM) | IC50 [2]: 58 µg/mL (≈ 180 µM)

C=CCOC(=O)c1nc2cc(Cl)c(Cl)cc2[nH]c1=O [K]
IC50 [5]: 75 µg/mL (≈ 251 µM) | IC50 [2]: 33 µg/mL (≈ 110 µM)

O=C(OCC1CCC1)c1nc2cc(Cl)c(Cl)cc2[nH]c1=O [L, Cyclobutylmethyl 6,7-Dichloro-3,4-dichloro-3-oxo-2-quinoxaline Carboxylate]
IC50 [5]: 20 µg/mL (≈ 61.1 µM) | IC50 [2]: 15 µg/mL (≈ 45.8 µM)

CCOC(=O)c1nc2cc(Br)c(Br)cc2[nH]c1=O [M]
degree of hepatotoxicity (both drugs) [3]: equal, though minor | degree of nephrotoxicity (both drugs) [3]: equal, though minor | degree of hepatotoxicity (both drugs) [4]: equal, though minor | degree of nephrotoxicity (both drugs) [4]: equal, though minor | minimal effective dose [1, 7]: 40 to 80 mg/kg | toxicity in monkeys relative to its 6,7-dichloro congener [6]: much less toxic

Ethyl 6(7)-Chloro-7(6)-bromo-3,4-dihydro-3-oxo-2-quinoxalineCarboxylate
Activity level (dose level at which activity was found) (Polio III): 2000 µg/mg | Activity level (dose level at which activity was found) (Vaccinia): 2000 µg/mg | in vivo dose at which there was a statistically significant increase in survival [1, 10]: 80 mg/kg

Ethyl 6-Nitro-8-chloro-3,4-dihydro-3-oxo-2-quinoxaline carboxylate and Ethyl 7-Nitro-5-chloro-3,4-dihydro-3-oxo-2-quinoxaline Carboxylate [S]
Activity level (dose level at which activity was found) (Herpes simplex): 2000 µg/mg | Activity level (dose level at which activity was found) (Vaccinia): 2000 µg/mg | in vivo dose at which there was a statistically significant increase in survival [1, 10]: 80 mg/kg | Activity level (dose level at which activity was found) (Echo 10): 2000 µg/mg

Ethyl 6-methoxy-5-nitro-3,4-dihydro-3-oxo-2-quinoxaline Carboxylate and Ethyl 7-Methoxy-8-nitro-3,4-dihydro-3-oxo-2-quinoxaline Carboxylate
Activity level (dose level at which activity was found) (Herpes simplex): 2000 µg/mg | in vivo dose at which there was a statistically significant increase in survival [1, 10]: 80 mg/kg | Activity level (dose level at which activity was found) (Echo 10): 2000 µg/mg

ethyl 6(7)-nitro-3,4-dihydro-3-oxo-2-quinoxaline carboxylate
Activity level (dose level at which activity was found) (Vaccinia): 2000 µg/mg | I50, amount of drug which inhibits 50% of the plaques ([2]; Maryland B influenza virus, in vitro, 72 hours at 37° C.): 40 µg/mL | in vivo dose at which there was a statistically significant increase in survival [1, 10]: 80 mg/kg
